# Data: patent US5130327A, “Indole derivatives” (Consejo Superior de Investigaciones Cientificas, priority 1989, dated 1992)
# How the values were obtained:
# Bovine Brain MAO B = target: T1, Bovine Brain MAO B (Bos taurus, UniProt P56560); test: In vitro inhibition of MAO from bovine brain mitochondria, tyramine as substrate (form B); assay type: biochemical; conditions: pI50 = -log [I50], molar; bovine brain mitochondria, tyramine as substrate
# T1 construct: in vitro activity of MAO from bovine brain mitochondria; from tissue; host or cells: bovine brain mitochondria
# T1 sequence (P56560 1-520): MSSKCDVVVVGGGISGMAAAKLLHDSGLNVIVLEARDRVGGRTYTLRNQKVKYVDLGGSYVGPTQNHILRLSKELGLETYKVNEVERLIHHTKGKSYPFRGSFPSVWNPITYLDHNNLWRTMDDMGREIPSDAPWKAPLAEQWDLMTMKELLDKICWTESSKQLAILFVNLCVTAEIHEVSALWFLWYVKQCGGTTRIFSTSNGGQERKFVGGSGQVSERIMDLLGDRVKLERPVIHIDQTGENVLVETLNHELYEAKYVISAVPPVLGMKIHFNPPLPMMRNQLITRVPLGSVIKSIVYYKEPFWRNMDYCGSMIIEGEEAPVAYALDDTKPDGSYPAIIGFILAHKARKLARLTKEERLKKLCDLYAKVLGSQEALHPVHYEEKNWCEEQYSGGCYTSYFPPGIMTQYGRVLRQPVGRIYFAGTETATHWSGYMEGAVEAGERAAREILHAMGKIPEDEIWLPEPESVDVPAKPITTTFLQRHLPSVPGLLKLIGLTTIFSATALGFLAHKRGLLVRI
# Text: The following table illustrates the structure of particular compounds of the invention (1). It also gives specific pI50 values where pI50 =-log [I50 ] where [I50 ] is the molar concentration of test compound which inhibits 50% of the in vitro activity of MAO from bovine brain mitochondria using tyramine as substrate.
# rat cerebral MAO A and B = test: MAO inhibitory activity at the biochemical level (reversibility and selectivity)
# Text: To determine MAO inhibitory activity at the biochemical level the following tests are used:
# 1. "In vitro inhibition" of rat cerebral MAO A and B giving I50 values for the two forms of the enzyme. Male Wistar rats (200 g) were used. Brains were obtained by decapitation and were homogenized. As substrates of the enzymes ^14 C-5-hydroxytryptamine oxalate 54 mCi/mmol and ^14 C-β-phenylethylamine were used. The residual enzymatic activities were referred to the activities in absence of MAO inhibitor (100%).
# 2. "Ex vivo inhibition" of rat cerebral MAO A and B after single dosing.
# This gives the degree of inhibition in vivo of both forms of the enzyme and variation of this inhibition with time after treatment with a single dose. The compounds were administered intraperitoneally to male Wistar rats (175 g.) at a dose of 5 mg/kg in 1 ml/kg (H2 O). Animals were sacrificed by decapitation 24 h. and 7 days after treatment and brains were removed and homogenized. Enzymatic activities determined in treated animals, were compared with the activities in control animals (100%).
# 3. "Ex vivo" inhibition of rat cerebral MAO A and B after repeated dosing.
# Male Wistar rats (175 g) were used.
# The compounds were administered once daily intraperitonally for 7 days at a dose of 0.5 and 1 mg/kg in 1 ml/kg […]. […]
# reuptake of dopamine = test: Reuptake of dopamine in vitro, crude synaptosomal preparation; assay type: biochemical, rat
# Method: Influence on the reuptake of monoamines "in vitro" was also studied. The effect of the compounds on the reuptake of 5-HT noradrenaline and dopamine was studied using Wistar male rats (350±2.5 g). They were kept under controlled light and temperature conditions and fed "ad libitum" until killed. The animals were killed by decapitation and brains were frozen and stored at -20° C. prior to analysis. Brains were dissected on an ice-filled petri dish. The cortices for 5-HT and noradrenaline assay and striatum (including caudate nucleus, putamen and globus pallidus) for dopamine assay were immediately weighed and homogenized. […] All drugs used in the study were dissolved in the incubation medium in a concentration range 10^-4 to 10^-8 M and were preincubated with the crude synaptosomal preparation obtained from the treated brains, for 5 min. at 37° C. or 0° C. before the addition of the labelled substrate.
# [1] = system: reuptake of noradrenaline; test: Reuptake of noradrenaline in vitro, crude synaptosomal preparation; assay type: biochemical, rat
# Method: Influence on the reuptake of monoamines "in vitro" was also studied. The effect of the compounds on the reuptake of 5-HT noradrenaline and dopamine was studied using Wistar male rats (350±2.5 g). They were kept under controlled light and temperature conditions and fed "ad libitum" until killed. The animals were killed by decapitation and brains were frozen and stored at -20° C. prior to analysis. Brains were dissected on an ice-filled petri dish. The cortices for 5-HT and noradrenaline assay and striatum (including caudate nucleus, putamen and globus pallidus) for dopamine assay were immediately weighed and homogenized. The standard incubation medium contained: 1.7 μM ^14 C-5-HT); 0.5μM ^3 H-noradrenaline or 1 μM ^3 H-dopamine with 0.1 ml of the crude synaptosomal preparation. All drugs used in the study were dissolved in the incubation medium in a concentration range 10^-4 to 10^-8 M and were preincubated with the crude synaptosomal preparation obtained from the treated brains, for 5 min. at 37° C. or 0° C. before the addition of the labelled substrate.
# [2] = Interaction with clonidine-induced hypoactivity; assay type: in vivo
# Text: The action mechanism was studied in acute and chronic treatments on the interaction response with clonidine, salbutamol (Richard, J. Intern. J. Neuroscience, 9:17-19, 1979) and tetrabenazine (Pletscher, A.: An. N.Y. Aca. Sci. 80:1039-1045, 1959), and the response to the potentiation with L-dopa, L-tryptophan, tryptamine (Jalfre, M. et al., Arch. Int. Pharmacodyn, 159:194-221, 1982) and β-phenylethylamine (Ortmann, et al, Psychopharmacol. 84:22-27, 1984).
smiles,measurement,setting,value
"C#CCN(C)Cc1cc2cc(OC)ccc2n1C [(l), N-methyl-N-propargyl-2-(1-methyl-5-methoxy-indolyl)methylamine]",IC50,Bovine Brain MAO B,891 nM
same,"Type of MAO inhibition (reversibility, selectivity)",rat cerebral MAO A and B,irreversible and selective inhibitor of MAO A
same,Inhibition of the reuptake of dopamine,reuptake of dopamine,very weak inhibitor
same,Potency as inhibitor of dopamine reuptake relative to amitryptiline,reuptake of dopamine,similar
same,Potency as inhibitor of dopamine reuptake relative to imipramine,reuptake of dopamine,ten fold
same,Effect on the reuptake of noradrenaline,[1],no effect
same,"Hypoactivity by clonidine, acute treatment",[2]; acute treatment,not modifying it
same,"Hypoactivity by clonidine, chronic treatment",[2]; chronic treatment (5 days),antagonized
